Measurements: US20260014278A1, “HYBRID PEPTIDE DENDRIMER SYSTEMS AND EXTRAHEPATIC DELIVERY” (NUNTIUS THERAPEUTICS LIMITED, priority 2022, published 2026)
One block for each substance: values may come before it.

Tests used:
HeLa cells = test: Luciferase plasmid (pCl-Luc) DNA transfection of HeLa cells; format: cell-based, human; conditions: for transfection, comparison of generations G1, G2, G3: pCl-Luc with D/D, 24 h, FIG. 16A
Text: (§1) FIG. 15. Comparison of the transfection efficiency of G1,2,3-RL with other commercial transfection reagents including DOTMA/DOPE, Polyethylenimine and Lipofectamine 2000 for DNA delivery. (A) Transfection in HeLa cells without the presence of serum, (B) transfection in HeLa cells with the presence of serum, (C) transfection in Neuro2A cells without the presence of serum and (D) transfection in Neuro2A cells with the presence of serum. Cells transfected with a luciferase-expressing plasmid (pCl-Luc) in the presence of GSCG1,2,3-RL with D/D (measured 24 h after transfection). The luminescence values were normalized by dividing them by the analogous values for cells treated with a D/D DNA complex to generate the % of transfection. Conditions: 1×10^4 cells were transfected with 0.25 μg pCl-Luc for 4 hours without serum or in the presence of 10% serum. Error bars refer to the mean±SEM for experiments carried out in triplicate. […] D/D is DOTMA/DOPE at w/w 1:1.
(§2) FIG. 16. Comparison of the transfection efficiency of dendrimers with different generations (G1, G2 and G3) with different N/P ratios and cationic residues (e.g. KL vs RL) for DNA delivery. (A) Transfection efficiency in HeLa cells, (B) transfection efficiency in Neuro2A cells. Cells transfected with a luciferase-expressing plasmid (pCl-Luc) in the presence of peptide dendrimers with D/D (measured 24 h after transfection). The luminescence values were normalized by dividing them by the analogous values for cells treated with a D/D DNA complex (w/w 1:1, 0.25 μg) to generate the % of transfection. Conditions: 1×10^4 cells were transfected with 0.25 μg pCl-Luc. Error bars refer to the mean±SEM for experiments carried out in triplicate. * denotes p<0.05. D/D is DOTMA/DOPE at w/w 1:1. Generation 2 and generation 3 dendrimers perform better at transfecting both HeLa and Neuro2A cells compared to generation 1 dendrimers.
(§3) Using a third generation peptide dendrimer, GSCG1,2,3-RL, the inventors also compared the transfection efficiency of DNA using this dendrimer to that of commercially available transfection reagents. […]

Neuro2A cells = test: Luciferase plasmid (pCl-Luc) DNA transfection of Neuro2A cells; format: cell-based; conditions: for transfection, comparison of generations G1, G2, G3: pCl-Luc with D/D, 24 h, FIG. 16B
Text: as §1, §2, §3

[1] = tested on: macrophage-polarised primary bone marrow derived monocytes; test: eGFP mRNA transfection of macrophage-polarised primary mouse bone marrow derived monocytes, flow cytometry; format: cell-based; conditions: GSCG1,2-RHL NP=0.6:1, GSCG1,2-RL, 3-LR NP=0.16:1, GSCG1,RL, 2-LR NP=8:1, DOTMA:DOPE w/w 10:1, lipid-only DOTMA/DOPE w/w 3.2:1, FIG. 2
Method: BMDM cells were isolated using the StemCell Tech EasySep Mouse Monocyte Isolation Kit from mouse bone marrow cell suspension. The cells were resuspended in complete medium (DMEM+1% glutamax+10% heat inactivated FBS+1% Pen/Strep) enriched with 50 ng/ml murine M-CSF (1:1000 of 50 μg/ml stock) at 1E+6 cells/mi. 2 million cells (i.e. 2 mL) was seeded in each well of 6-well plate(s). The plate was incubated at 37° C. for 4 days. Half media exchange was performed using complete media enriched with […] murine M-CSF and 40 ng/ml murine IL-4. Cells were then harvested the next day (day 5) by washing cells with PBS and a 10 minute incubation with 5 mM EDTA (diluted in PBS) at 37° C. followed by plate tapping and resuspension. […]
Data were collected using a BD LSRFortessa I analyser running […] software (Beckton Dickinson). All collected data were analysed using FlowJo 10.0 software.
Transfection efficiency of macrophage-polarised primary bone marrow derived monocytes using various peptide dendrimer/lipid nanoparticles was assessed and compared to lipid-only nanoparticles (LPX-RNA). Each nanoparticle, with or without dendrimer, included eGFP mRNA to allow analysis of absolute numbers of cells transfected to be assessed by flow cytometry. […]

[2] = Dynamic light scattering: hydrodynamic size and polydispersity index (PDI) of nanoparticles; format: physicochemical
Method: (§4) The hydrodynamic size was measured using the dynamic light scattering (DLS) technique. DLS is a very sensitive, non-invasive method to measure size and size distribution of nanoparticles in a liquid. […] Analysing these intensity fluctuations allows us to calculate the velocity of the Brownian motion. The size of the nanoparticles can be determined by using the Stokes-Einstein relationship. With the latest technology, it can measure nanoparticles smaller than 1 nm.
PDI is used to estimate the average uniformity of a particle solution, The method of cumulants is a standard technique for analysing DLS data on sample polydispersity. PDI is a number calculated from a 2 parameter fit to the correlation data (the cumulants analysis). The cumulants analysis is used to evaluate the autocorrelation function generated by a DLS experiment. The calculation is defined in ISO 13321 and ISO 22412. PDI values greater than 0.7 indicate that the sample has a very broad size distribution and is not suitable for the DLS technique. The calculations for these parameters are defined in the ISO standard document 13321:1996 E and ISO 22412:2008.
as §4, with “Size, zeta potential and polydispersity index (PDI) measurement: The hydrodynamic” for “The hydrodynamic”, “scattering (DLS) technique using the Zetasizer Advance Series—Pro (Malvern Panalytical Ltd, Malvern, UK) according to the manufacturer's instructions. DLS is” for “scattering (DLS) technique. DLS is”
The data obtained with DLS measurements can also be used to calculate the PDI of particle in solution. PDI is used to estimate the average uniformity of a particle solution. The method of cumulants is a standard technique for analysing DLS data on sample polydispersity. PDI is a number calculated from a 2 parameter fit to the correlation data (the cumulants analysis). The cumulants analysis is used to evaluate the autocorrelation function generated by a DLS experiment. The calculation is defined in ISO 13321 and ISO 22412. PDI values greater than 0.7 indicate that the sample has a very broad size distribution and is not suitable for the DLS technique. The calculations for these parameters are defined in the ISO standard document 13321:1996 E and ISO 22412:2008.
To measure the size and PDI, the samples were diluted 16× in 25 mM HEPES buffer (5 μl sample+75 μl buffer). Parameters: reference material: polystyrene latex, dispersant: water, 25° C. The PDI measurements were measured in nanoparticles comprising a dendrimer:nucleic acid NP ratio of 8:1.

human THP-1 cells = test: eGFP mRNA transfection of human THP-1 macrophages, flow cytometry; format: cell-based; conditions: GSCG1,2-RL, 3-LR NP=0.16:1, GSCG1-LRLR NP=0.6, GSCG1,2-RHL NP=5:1, GSCG1,2-RF, 3HL NP=0.6:1, RHCG1-R NP=0.6:1, DOTMA:DOPE w/w 10:1, lipid-only w/w 3.2:1, FIG. 3
Method: THP-1 cells (a human leukaemia monocytic cell line) were sub-cultured in RPMI (with glutamax)+10% heat inactivated FBS (complete media) at 3E+5 cells/ml and passaged every 3-4 days. For macrophage polarisation 7.5E+6 cells were seeded in T75 flasks in a total of 20 ml complete media containing 5 ng/ml PMA (1:1000 of 5 ug/ml stock). The cells were transferred to the 37° C. incubator for overnight. After 24 hrs, THP-1 cells were washed with complete medium and a fresh flask complete medium (not containing PMA) was overlaid on the cells. After a further 72 hrs, the complete medium was exchanged for fresh complete media containing 20 ng/ml rhlL-4 (1:500 of 10 μg/ml stock). 24 hrs later the cells were harvested by firstly washing the cells with PBS followed by a 5 minute treatment at 37° C. with 5 mM EDTA (diluted in PBS). Cells were spun down at 300 g for 5 minutes and resuspended in a complete medium containing 20 ng/ml rhlL-4 at 2.4E+5 cells/mi. 500 ul of cells were seeded into each well on a 24-well plate and left overnight in the 37° C. incubator.
The medium overlaying the polarised THP-1 cells was aspirated and exchanged with 480 ul/well complete media containing 20 ng/ml rhlL-4. […]
Data were collected using a BD LSRFortessa I analyser running […] software (Beckton Dickinson). All collected data were analysed using FlowJo 10.0 software. […]

Substance: (KL)2KGSC-NH2 [GSCG1-KL]
transfection, comparison of generations G1, G2, G3 (HeLa cells): do not transfect
transfection, comparison of generations G1, G2, G3 (Neuro2A cells): do not transfect

Polydispersity Index (PDI) ([2]; peptide dendrimer, lipid and mRNA complexes, N:P 8:1, DOTMA/DOPE w/w 10:1 to mRNA): 0.109
Substance: (LR)4(KRL)2KRHC-NH2 [RHCG1-RL, 2-LR]
transfection efficiency [1]: ~50%

PDI ([2]; Table 7, first generation dendrimers for mixed dendrimer nanoparticles): 0.566
Substance: (R)2KRHC-NH2 [RHCG1-R]
transfection efficiency (human THP-1 cells): 30-35%

Substance: (RL)2KGSC-NH2 [GSCG1-RL]
transfection, comparison of generations G1, G2, G3 (HeLa cells): do not transfect
transfection, comparison of generations G1, G2, G3 (Neuro2A cells): do not transfect

Substance: (RL)4(KRL)2KGSC-NH2 [GSCG1,2-RL]
transfection efficiency in comparison to GSCG1,2-KL (HeLa cells; N/P ratio of 10:1 or 20:1, FIG. 16): higher transfection efficiency
transfection efficiency in comparison to GSCG1,2-KL (Neuro2A cells; N/P ratio of 20:1, FIG. 16): higher transfection efficiency
